Where two headings read alike, the source gives them in different places.
Assays:
[1] = for AUCinf, adjusted geometric mean / AUClast, adjusted geometric mean / Cmax, adjusted geometric mean: healthy subjects, N=25; for pharmacokinetic interaction with LCZ696 (steady-state concentration-time profiles): in the presence and absence of LCZ696, FIG. 1a, 1b
Text: This study employs a single blind, randomized, two-period, crossover design. All subjects are blinded to the treatment to eliminate study bias. Each subject participates in a screening period, two baseline periods, and two treatment periods. A washout period of at least 10 days but not more than 14 days separates each treatment period.
This study employs a single blind, randomized, two-period, crossover design. Twenty six healthy male and female subjects are enrolled to ensure at least 20 completers. Each subject participates in a screening period (day-21 to day-2), two baseline periods (day-1), two treatment periods, a washout period of at least 10 days separating the treatment periods, and a study completion evaluation. Subjects undergo routine safety testing during screening, including physical, routine hematology, biochemistry, urinalysis, viral serology screening, pregnancy testing (female subjects), urine drug screening, alcohol screening, standard 12-lead electrocardiogram (ECG), and vital signs assessments to establish eligibility.
Subjects are randomized into the following two treatment sequences during treatment Period 1 and Period 2 as shown.
Treatment Period 1: Those subjects who successfully pass screening (Days-21 to -2) report to the study center in the morning of the day prior to the initial dosing (Day-1) for admission into the study center, at which time they undergo baseline safety evaluations as conducted during screening (except viral serology). All baseline safety evaluation results should be available prior to first dosing. Subjects are domiciled for at least 11 days during each treatment period.
Serial samples for drug/placebo pharmacokinetics are collected on Day 4 for up to 12 hours post morning dose.
In the evening prior to each of full pharmacokinetic (PK) assessment days (Day 4 & day 5) the subjects fast overnight (10-12 hours) prior to dosing, and continue to fast until 4 hours post-dose. On Day 1, 2, 3, 6, 7, 8, 9, and 10 the subjects are dosed following an overnight fast of 10-12 hours and receive breakfast 30 minutes post-dose, and evening snacks are provided 30 minutes after evening dosing on all dosing days.
Treatment Period 2: Subjects are required to return to the study center following a washout period of at least 10 days for period 2 baseline evaluation (Day-1). All study related activities including pharmacokinetic sampling for all treatments follow the same schedule as in Period 1.

[2] = system: extrinsic pathway of coagulation
Text: The prothrombin time (PT) and its derived measures of prothrombin ratio (PR) and international normalized ratio (INR) are measures of the extrinsic pathway of coagulation. […] The prothrombin time is the time it takes blood plasma to clot after addition of tissue factor (obtained from animals). The result (in seconds) of the prothrombin time performed in a normal individual will vary depending the analytical system and method used. This is due to differences between different batches of manufacturer's tissue factor used to perform the test.
The international normalized ratio (INR) was devised to standardize the results. The INR is the ratio of a patient's prothrombin time (PT) to a normal (control) sample, raised to the power of the International Sensitivity Index (ISI) value for the analytical system used.

[3] = LCZ696 200 mg b.i.d. + Warfarin 25 mg single dose on Day 5
[4] = Placebo + Warfarin 25 mg single dose on Day 5
[5] = healthy subjects, Warfarin 25 mg single dose with LCZ696 200 mg b.i.d. or with placebo, N=25

Row | SMILES | AUCinf, adjusted geometric mean [1, 3] | AUClast, adjusted geometric mean [1, 3] | Cmax, adjusted geometric mean [1, 3] | AUCinf, adjusted geometric mean [1, 4] | AUClast, adjusted geometric mean [1, 4] | Cmax, adjusted geometric mean [1, 4] | pharmacokinetic interaction with LCZ696 (steady-state concentration-time profiles) [1] | Mean INR (AUCINR/144), geometric mean [2, 5] | Mean Prothrombin time (AUCPT/144), geometric mean [2, 5] | Peak INR, geometric mean [2, 5] | Peak prothrombin time, geometric mean [2, 5] | interaction with LCZ696 as indicated by the INR ([2]; warfarin (racemic) administration, FIG. 3) | interaction with LCZ696 as indicated by prothrombin times ([2]; warfarin (racemic) in the presence and absence (placebo) of LCZ696, FIG. 2)
1 | CC(=O)C[C@H](c1ccccc1)c1c(O)c2ccccc2oc1=O [R-Warfarin] | 64.89196 µg·h/mL | 58.79687 µg·h/mL | 1.32529 µg/mL | 66.15348 µg·h/mL | 59.53411 µg·h/mL | 1.37371 µg/mL | lack of pharmacokinetic interaction |  |  |  |  |  | 
2 | CC(=O)CC(c1ccccc1)c1c(O)c2ccccc2oc1=O (racemic) [Warfarin, (RS)-4-hydroxy-3-(3-oxo-1-phenylbutyl)-2H-chromen-2-one] |  |  |  |  |  |  |  | 1.30 | 16.51 s | 1.90 | 22.00 s | lack of interaction | lack of interaction
3 | CC(=O)C[C@@H](c1ccccc1)c1c(O)c2ccccc2oc1=O [S-Warfarin] | 50.6772 µg·h/mL | 46.64781 µg·h/mL | 1.34445 µg/mL | 52.02731 µg·h/mL | 47.57037 µg·h/mL | 1.4142 µg/mL | lack of pharmacokinetic interaction |  |  |  |  |  | 

Reference: US20140329872A1, “TREATMENT OF HYPERTENSION AND/OR PREVENTION OR TREATMENT OF HEART FAILURE IN A MAMMAL RECEIVING ANTI-COAGULANT THERAPY” (NOVARTIS AG, priority 2010, published 2014)
